Results from US20240079083A1, “USING BIPARTITE NETWORKS TO DETERMINE INTERACTIONS BETWEEN ANALYTES AND CHEMICAL TREATMENTS” (UT-Battelle, LLC, priority 2022, published 2024).

Key:
[1] = tested on: Aspergillus fumigatus; assay: Auxiliary route: untargeted metabolomic profiling of the treatments, 25° C. (FCROS, bipartite network); type: cell-based
Description: (§1) The auxiliary route follows an untargeted metabolomic profiling of the treatments. […] In the direct route, a peak area cutoff of 5×10^5 was used to detect signals with significant peaks between a treatment and solvent control. Although their peak area cutoff of 5×10^5 eliminates most noise, it is a linear cutoff and leaves some residual noise in the analysis due to column creep. Therefore, the dataset for the auxiliary route can be curated from the experimental study using baseline correction preprocessing tools. Following the processes defined by “Dynamics of Metabolite Induction in Fungal Co-cultures by Metabolomics at Both Volatile and Non-volatile Levels”, Front. Microbiol., 5 Feb. 2018 Sec. Antimicrobials, Resistance and Chemotherapy, Azzollini et al., peaks can be picked using GridMass and aligned using RANSAC alignment or another suitable alignment tool. Peak data can then be matched to known profiles in KEGG and LipidMap.
(§2) Peak significance was determined upon FCROS scoring. Non-significant analytes were not included in the network. An interactive map of the network illustrating the details of each analyte (m/z ratio, retention times, p-values, etc.) can be generated.
The untargeted extraction of statistically relevant peaks using the auxiliary route can yield a significant number of analytes for potential exploration. The edges and neighbors of the nodes in the network can be used to determine which analytes to be first considered for targeted exploration. Analytes of particular interest express both […] depending on the treatment considered. Additionally, analytes of extreme up- and down-regulation can be of interest along with the node degree values of the analytes. FIG. 13D illustrates significant peaks with log2 fold change greater than 1 or less than −1. The total number of interactions (edges in the network) found with the auxiliary route is considerably higher compared to the network in the direct route. […] At 25 C, analytes ID 26 and ID 105 were matched to fraxetin via the KEGG database query. […] Analyte ID 222 was matched to ICAS #18 from the LipidMap database. […] At the same time, no single highly produced analyte is triggered by all three chitooligosaccharides.

[2] = tested on: Aspergillus fumigatus; assay: Direct route: production of known and putative specialized metabolites under exogenous treatments, 25° C. (targeted LC-MS, bipartite network); type: cell-based; settings: for broadcasting PageRank of the treatments: minimum-maximum normalized; for broadcasting PageRank of the treatments / node out-strength of the treatments (effect on triggering metabolite production): rank among treatments
Description: (§3) Several examples of a bipartite network framework of treatments and metabolomic outputs will now be described. Bipartite networks are built to quantify the relationship between metabolites and the sources triggering their production, such as various exogenous biomolecules or compounds. As discussed above, a bipartite network (or graph) is a collection of nodes connected by lines named edges. The nodes represent the entities or elements of a system, and the edges represent the interaction or relationship amongst the features. For example, in cell metabolism, a metabolic network represents the biochemical reactions amongst substrates that result in products. The nodes of the metabolic network represent the substrates, and the edges represent the metabolic reactions amongst the substrates. For example, this framework can assess the effect of exogenous compounds on the production of specialized microbial metabolites. The nodes can be classified into two types: the treatments and the specialized metabolites, resulting in a bipartite network. The edges represent the magnitude of up- or down-regulation of specialized metabolites caused by the treatments compared to a controlled case (measured by the magnitude of log2 fold change using processed spectral data from targeted LC-MS analysis).
The bipartite network provides an in-depth quantification and clear visual representation of a treatment's ability to trigger the production of various specialized metabolites. Two routes are provided to assess specialized metabolite production using the bipartite network formulation, as shown in FIG. 15. The first is the direct route 1502 to determine the biosynthesis of known and putative metabolites, whereas the second is the auxiliary route 1504 to assess the production of unknown analytes. In the direct route 1502, the network nodes include treatments that elucidate known and putative metabolites by a microbe. Network centrality measurements 1506 are used to rank the treatments and the specialized metabolites. Those measurements can be used to identify the most influential nodes in the bipartite network. […] The treatments can be ranked based on their capability to trigger metabolite production, and the metabolites can be classified based on their popularity in being activated by various treatments. In the auxiliary route, the bipartite networks are built using analyte peaks extracted from post-processed spectral data. Further, the systems and methods of the present disclosure analyze the edges and neighborhoods of nodes to distinguish unique analytes among the total pool.
The bipartite network framework was used in this example to reveal the effect of various chitooligosaccharides and lipid treatments on triggering the production of specialized metabolites in Aspergillus fumigatus. Various chitooligosaccharides and lipids were applied as exogenous treatments since they are common constituents found in most fungi. Moreover, it has been previously shown that lipids influence fungal metabolomics; however, the impacts of chitooligosaccharides have remained unknown. In contrast, chitooligosaccharides are reported to have antifungal activity, which might potentially influence the metabolomic profile in Aspergillus species. This example highlights the influence of temperature on the production of specialized metabolites by conducting the experiments at 25 and 37° C. Aspergillus fumigatus is generally examined at 25° C. to explore the extent of its metabolomic capabilities or its lifestyle as a soilborne saprotroph that recycles environmental carbon and nitrogen. However, the fungus is also an opportunistic human pathogen and is commonly examined at 37° C. for its ability to cause aspergillosis, a lung disease found in immunocompromised patients. […]

[3] = tested on: Aspergillus fumigatus; assay: Direct route: production of specialized metabolites under exogenous treatments, 37° C.; type: cell-based
Description: as §3
The bipartite network provides an in-depth quantification and clear visual representation of a treatment's ability to trigger the production of various specialized metabolites. Two routes are provided to assess specialized metabolite production using the bipartite network formulation, as shown in FIG. 15. The first is the direct route 1502 to determine the biosynthesis of known and putative metabolites, whereas the second is the auxiliary route 1504 to assess the production of unknown analytes. In the direct route 1502, the network nodes include treatments that elucidate known and putative metabolites by a microbe. Network centrality measurements 1506 are used to rank the treatments and the specialized metabolites. […]

[4] = tested on: Aspergillus fumigatus; assay: Auxiliary route: untargeted analytes under the treatments, 37° C.; type: cell-based
Description: as §1, §2
Considering the analytes from the network at 37° C. shown in FIG. 14D, twelve significant analyte peaks with log2 fold change intensities greater than 1 were extracted from the processed data. All three CO treatments at 37° C. triggered no shared analytes. Nor did the two lipid treatments trigger a shared analyte. Ten of the twelve analytes with log2 fold change intensities greater than 1 or less than −1 are uniquely triggered by a single treatment (i.e., analytes with node degree 1), as shown in FIG. 14D. Of the twelve significant extracted analyte peaks, eleven were identified from database queries. Analytes identified by KEGG were putative metabolites, hellebrigenin 3-acetate (ID 10), fraxetin (ID 16), beta-cyclopiazonate (ID 70), phenylbutazone (ID 71), borrerine (ID 89), clofibrate (ID 110), alangimarine (IDs 163 and 164), and sulindac (IDs 168 and 169). LipidMaps identified 6′-hydroxysiphonaxanthin decenoate (ID 21). […] There are no connections in ID numbers between the 25° C. and 37° C. experiments.

[5] = tested on: Aspergillus fumigatus; settings: 37° C.; cited from earlier work

In the case of CCCCCCCCCCCCCCCC(=O)O [palmitic acid], the “regulation of ICAS #18 (analyte ID 222)” value ([1]; with respect to the control) is reported as “significantly down regulates”, the “broadcasting PageRank of the treatments” value [2] is reported as “least broadcasting PageRank measure” and the “node out-strength of the treatments (effect on triggering metabolite production)” value (from here on “node out-strength of the treatments”) [2] is reported as “minor influence on inducing metabolite production”. For the same compound, the “effectiveness of treatment at triggering metabolite production (node strength and PageRank)” value (“effectiveness of treatment” below) [3] was “most effective treatment on metabolite production”, the “regulation of analyte 163” value [4] was “upregulated” and the “regulation of analyte 168” value [4] was “upregulated”. For the same compound, the “regulation of analyte ID 90” value [4] was “upregulated”.

With CC(=O)N[C@H]1[C@H](O[C@H]2[C@H](O)[C@@H](NC(C)=O)[C@H](O[C@H]3[C@H](O)[C@@H](NC(C)=O)[C@H](O[C@H]4[C@H](O)[C@@H](NC(C)=O)C(O)O[C@@H]4CO)O[C@@H]3CO)O[C@@H]2CO)O[C@H](CO)[C@@H](O[C@@H]2O[C@H](CO)[C@@H](O[C@@H]3O[C@H](CO)[C@@H](O[C@@H]4O[C@H](CO)[C@@H](O[C@@H]5O[C@H](CO)[C@@H](O)[C@H](O)[C@H]5NC(C)=O)[C@H](O)[C@H]4NC(C)=O)[C@H](O)[C@H]3NC(C)=O)[C@H](O)[C@H]2NC(C)=O)[C@@H]1O (some centres unmarked) [CO8] the “broadcasting PageRank of the treatments” value [2] was “followed by CO8”, the “node out-strength of the treatments” value [2] was “minor influence on inducing metabolite production” and the “regulation of analyte 163” value [4] was “upregulated”.

In the case of CCCCCCCC/C=C\CCCCCCCC(=O)O [oleic acid], the “number of metabolites triggered” value [2] is reported as “five”, the “number of unique metabolites triggered” value [2] is reported as “two” and the “broadcasting PageRank of the treatments” value ([2]; listed as Oleic acid) is reported as “higher broadcasting PageRank value than CO5”. For the same compound, the “node out-strength of the treatments” value [2] was “then oleic acid”, the “effectiveness of treatment” value [3] was “poor at triggering the production of metabolites” and the germination [5] was “inducer of germination”. For the same compound, the “regulation of analyte 168” value [4] was “downregulated”.

With CC(=O)N[C@H]1[C@H](O[C@H]2[C@H](O)[C@@H](NC(C)=O)C(O)O[C@@H]2CO)O[C@H](CO)[C@@H](O[C@@H]2O[C@H](CO)[C@@H](O[C@@H]3O[C@H](CO)[C@@H](O)[C@H](O)[C@H]3NC(C)=O)[C@H](O)[C@H]2NC(C)=O)[C@@H]1O (some centres unmarked) [CO4] the “production of analyte 16” value [1] was “significantly produced”, the “number of metabolites triggered” value [2] was “six” and the “number of unique metabolites triggered” value [2] was “two”. For the same compound, the “broadcasting PageRank of the treatments” value [2] was “most effective treatment”, the “node out-strength of the treatments” value [2] was “highest effect on triggering metabolite production” and the “effectiveness of treatment” value [3] was “poor at triggering the production of metabolites”. The “regulation of analyte 163” value [4] was “downregulated” and the “regulation of analyte 168” value [4] was “downregulated”.

In the case of CC(=O)N[C@H]1[C@H](O[C@H]2[C@H](O)[C@@H](NC(C)=O)[C@H](O[C@H]3[C@H](O)[C@@H](NC(C)=O)C(O)O[C@@H]3CO)O[C@@H]2CO)O[C@H](CO)[C@@H](O[C@@H]2O[C@H](CO)[C@@H](O[C@@H]3O[C@H](CO)[C@@H](O)[C@H](O)[C@H]3NC(C)=O)[C@H](O)[C@H]2NC(C)=O)[C@@H]1O (some centres unmarked) [CO5], the “production of analyte 16” value [1] is reported as “significantly produced”, the “regulation of fraxetin (analytes ID 26 and ID 105)” value ([1]; log2 fold change greater than 1 or less than −1) is reported as “upregulated” and the “number of unique metabolites triggered” value [2] is reported as “one”. For the same compound, the “regulation of analyte ID 90” value [4] was “upregulated”.
